Like-named read-outs stand apart in the source and are kept apart here.
Tests used:
[1] = system: HCT-116 (colorectal cancer) cell line; experiment: SRB in-vitro cytotoxicity assay, HCT-116; details: Homo sapiens
Description: (§1) All the ring annulated analogues of cannabinoid were evaluated for their cytotoxicity against number of human cancer cell lines. To evaluate the in-vitro cytotoxicity, a sulphorhodamine B (SRB) assay was carried out. SRB is a negatively charged pink aminoxanthine dye that binds to the basic amino acid of cells in mildly acidic conditions and is removed in basic conditions. […] When cells reached 60-70% confluency, trypsinized and seeded in 96 well plates according to their inoculation density and incubated for 24 hours to attain their proper morphology. Next-day cells were again incubated for 48 hours with test compounds or paclitaxel (positive control). Next, cells were fixed with 50% of ice-cold TCA for 1 hours, washed with distilled water, and kept for air drying. Air-dried plates were then stained with 0.4% SRB dye for 30 minutes and subsequently with water and 1% v/v glacial acetic acid were then kept for air drying. […] The viability of cells is measured based on bound dye after fixation, which is measured by absorbance at 540 nm.

[2] = system: MCF-7 (breast cancer) cell line; experiment: SRB in-vitro cytotoxicity assay, MCF-7; details: Homo sapiens
Description: as §1

[3] = system: A549 (lung cancer) cell line; experiment: SRB in-vitro cytotoxicity assay, A549; details: Homo sapiens
Description: as §1

[4] = system: Mia-PaCa (pancreatic cancer) cell line; experiment: SRB in-vitro cytotoxicity assay, Mia-PaCa; details: Homo sapiens
Description: as §1

[5] = system: PC-3 (prostate cancer) cell line; experiment: SRB in-vitro cytotoxicity assay, PC-3; details: Homo sapiens
Description: as §1

[6] = system: U251 (glioblastoma) cell line; experiment: SRB in-vitro cytotoxicity assay, U251; details: Homo sapiens
Description: as §1

[7] = in vitro; details: human
Description: as §1

[8] = HCT-116, 48 h, read-out: Cytotoxicity (in vitro cell inhibition) HCT-116
[9] = HCT-116, read-out: inhibition against HCT-116 cell lines
[10] = MCF7, 48 h, read-out: Cytotoxicity (in vitro cell inhibition) MCF-7
[11] = MCF7, read-out: inhibition against MCF-7 cell lines
[12] = A549, 48 h, read-out: Cytotoxicity (in vitro cell inhibition) A549
[13] = MIA PaCa-2, 48 h, read-out: Cytotoxicity (in vitro cell inhibition) Mia-PaCa
[14] = 48 h, read-out: Cytotoxicity (in vitro cell inhibition) PC3
[15] = U-251, 48 h, read-out: Cytotoxicity (in vitro cell inhibition) U251
[16] = A549, read-out: inhibition against A549 cell lines
[17] = PC-3, read-out: inhibition against PC3 cell lines

With `C=C(C)[C@@H]1CCC(C)=C[C@H]1c1c(O)cc(CCCCC)c2c1OCN(CCCCCC)C2` [Ie, (N-hexyldihydrol-2H-oxazinyl)-cannabidiol] the inhibition at 20 µM [1, 8] was > 70%, the inhibition at 20 µM [1, 9] was > 70% and the inhibition at 20 µM [2, 10] was > 70%. The inhibition at 20 µM [2, 11] was > 70%, the inhibition at 20 µM [3, 12] was < 50% and the inhibition at 20 µM [4, 13] was < 50%. The inhibition at 20 µM [5, 14] was < 50%, the inhibition at 20 µM [6, 15] was < 50% and the inhibition at 48 h, 20 µM [7] was < 50%.

In the case of `C=C(C)[C@@H]1CCC(C)=C[C@H]1c1c(O)cc(CCCCC)c2c1OCN(c1ccccc1F)C2` [Io, (N-2-fluorophenyldihydrol-2H-oxazinyl)-cannabidiol], the inhibition at 20 µM [1, 8] is reported as < 50%, the inhibition at 20 µM [2, 10] is reported as < 50% and the inhibition at 20 µM [3, 12] is reported as < 50%. For the same molecule, the inhibition at 20 µM [4, 13] was < 50%, the inhibition at 20 µM [5, 14] was < 50% and the inhibition at 20 µM [6, 15] was < 50%. For the same molecule, the inhibition at 48 h, 20 µM [7] was < 50%.

In the case of `C=C(C)[C@@H]1CCC(C)=C[C@H]1c1c(O)cc(CCCCC)c2c1OCN(c1ccc(OC(F)(F)F)cc1)C2` [Il, (N-trifluoromethoxyphenyldihydrol-2H-oxazinyl)-cannabidiol], the inhibition at 20 µM [1, 8] is reported as < 50%, the inhibition at 20 µM [2, 10] is reported as < 50% and the inhibition at 20 µM [3, 12] is reported as < 50%. For the same molecule, the inhibition at 20 µM [4, 13] was < 50%, the inhibition at 20 µM [5, 14] was < 50% and the inhibition at 20 µM [6, 15] was < 50%. For the same molecule, the inhibition at 48 h, 20 µM [7] was < 50%.

With `C=C(C)[C@@H]1CCC(C)=C[C@H]1c1c(O)cc(CCCCC)c2c1OCN(c1ccc(C(C)C)cc1)C2` [Ik, (N-isopropylphenyldihydrol-2H-oxazinyl)-cannabidiol] the inhibition at 20 µM [1, 8] was < 50%, the inhibition at 20 µM [2, 10] was < 50% and the inhibition at 20 µM [3, 12] was < 50%. For the same molecule, the inhibition at 20 µM [4, 13] was < 50%, the inhibition at 20 µM [5, 14] was < 50% and the inhibition at 20 µM [6, 15] was < 50%. The inhibition at 48 h, 20 µM [7] was < 50%.

With `C=C(C)[C@@H]1CCC(C)=C[C@H]1c1c(O)cc(CCCCC)c2c1OCN(Cc1ccccc1)C2` [In, (N-benzyldihydrol-2H-oxazinyl)-cannabidiol] the inhibition at 20 µM [1, 9] was > 50%, the inhibition at 20 µM [2, 10] was < 50% and the inhibition at 20 µM [3, 16] was > 50%. The inhibition at 20 µM [4, 13] was < 50%, the inhibition at 20 µM [5, 17] was > 50% and the inhibition at 20 µM [6, 15] was < 50%. For the same molecule, the inhibition at 48 h, 20 µM [7] was < 50%.

With `C=C(C)[C@@H]1CCC(C)=C[C@H]1c1c(O)cc(CCCCC)c2c1OCN(c1cnc3ccccc3c1)C2` [Im, (N-quinolinedihydrol-2H-oxazinyl)-cannabidiol] the inhibition at 20 µM [1, 8] was < 50%, the inhibition at 20 µM [2, 10] was < 50% and the inhibition at 20 µM [3, 12] was < 50%. The inhibition at 20 µM [4, 13] was < 50%, the inhibition at 20 µM [5, 14] was < 50% and the inhibition at 20 µM [6, 15] was < 50%. For the same molecule, the inhibition at 48 h, 20 µM [7] was < 50%.

With `C=C(C)[C@@H]1CCC(C)=C[C@H]1c1c(O)cc(CCCCC)c2c1OCN(c1ccccc1)C2` [Ij, (N-phenyldihydrol-2H-oxazinyl)-cannabidiol] the inhibition at 20 µM [1, 8] was < 50%, the inhibition at 20 µM [2, 10] was < 50% and the inhibition at 20 µM [3, 12] was < 50%. For the same molecule, the inhibition at 20 µM [4, 13] was < 50%, the inhibition at 20 µM [5, 14] was < 50% and the inhibition at 20 µM [6, 15] was < 50%. The inhibition at 48 h, 20 µM [7] was < 50%.

For `C=C(C)[C@@H]1CCC(C)=C[C@H]1c1c(O)cc(CCCCC)cc1O` [IIa, cannabidiol], the inhibition at 20 µM [1, 8] was > 70%, the inhibition at 20 µM [1, 9] was > 70% and the inhibition at 20 µM [2, 10] was 50 to 70%. The inhibition at 20 µM [2, 11] was > 50%, the inhibition at 20 µM [3, 12] was > 70% and the inhibition at 20 µM [3, 16] was > 70%. For the same molecule, the inhibition at 20 µM [5, 14] was 50 to 70%, the inhibition at 20 µM [5, 17] was > 50% and the inhibition at 20 µM [6, 15] was < 50%.

In the case of `C=C(C)[C@@H]1CCC(C)=C[C@H]1c1c(O)cc(CCCCC)c2c1OCN(CCC)C2` [Ic, (N-propyldihydrol-2H-oxazinyl)-cannabidiol], the inhibition at 20 µM [1, 8] is reported as 50 to 70%, the inhibition at 20 µM [1, 9] is reported as > 50% and the inhibition at 20 µM [2, 10] is reported as > 70%. The inhibition at 20 µM [2, 11] was > 70%, the inhibition at 20 µM [3, 12] was 50 to 70% and the inhibition at 20 µM [3, 16] was > 50%. The inhibition at 20 µM [4, 13] was > 70%, the inhibition at 20 µM ([4]; MIA PaCa-2, read-out: inhibition against Mia-PaCa cell lines) was > 70% and the inhibition at 20 µM [5, 14] was 50 to 70%. For the same molecule, the inhibition at 20 µM [5, 17] was > 50%, the inhibition at 20 µM [6, 15] was 50 to 70% and the inhibition at 20 µM ([6]; U-251, read-out: inhibition against U251 cell lines) was > 50%. For the same molecule, the inhibition at 20 µM [7] was < 50%.

Source: US20260216216A1, “(N-ALKYLDIHYDROL-2H-OXAZINYL)-CANNABIDIOL AS ANTI-PROLIFERATIVE AGENT AND PROCESS FOR PREPARATION THEREOF” (COUNCIL OF SCIENTIFIC AND INDUSTRIAL RESEARCH, priority 2022, published 2026)
